Like-named read-outs stand apart in the source and are kept apart here.
Experiments:
Format in all cases: biochemical
Elastase = test: Enzyme stabilisation by Ectoin against temperature stress in vitro: elastase activity; details: 30 min incubation, Ectoin 1 mol/l, enzyme 0,05 mg/ml, Tris-HCl pH 6,8, difference to enzyme without Ectoin (set to 100 %)
Source text: (§1) Das Grundmedium für die Inkubation ist eine 0,25 molare Tris-HCl-Pufferlösung mit einem pH-Wert von 6,8.
(§2) Die Bestimmung der Enzymaktivität erfolgt • für Katalase nach der Methode von A. Claiborne [A. Claiborne 'Catalase Activity' in: R.A. Greenwald (Ed.), Handbook of Methods for Oxygen Radical Research, CRC Press, Boca Raton, FL. (1986) 283-284], • für Glutathionperoxidase nach der Methode von L. Flohé und W.A. Günzler [L. Flohé et al., Methods Enzymol. 105 (1989) 114-121], • für Superoxiddismutase nach der Methode von H.P. Nissen und H.W. Kreysel [H.W. Kreysel et al., 'Superoxide Dismutase in Human Semen, Klin. Wochenschr. 61 (1983) 63-65] und • für Elastase nach der Methode von L. Hornebeck und W. Hornebeck [W. Hornebeck et al., 'Characterisation of Human Skin Fibroblasts Elastase Activity', J. Invest. Dermatol. 91 (5) (1988) 472-477].
(§3) Die Ergebnisse sind für Katalase in Abb. 1, für Glutathionperoxidase in Abb. 2, für Superoxiddimutase in Abb. 3 und für Elastase in Abb. 4 dargestellt.

Superoxiddismutase = test: Enzyme stabilisation by Ectoin against temperature stress in vitro: superoxide dismutase activity; details: 30 min incubation, Ectoin 1 mol/l, enzyme 0,05 mg/ml, Tris-HCl pH 6,8, difference to enzyme without Ectoin (set to 100 %)
Source text: as §1, §2, §3

Glutathionperoxidase = test: Enzyme stabilisation by Ectoin against temperature stress in vitro: glutathione peroxidase activity; details: 30 min incubation, Ectoin 1 mol/l, enzyme 0,05 mg/ml, Tris-HCl pH 6,8, difference to enzyme without Ectoin (set to 100 %)
Source text: as §1, §2, §3

Katalase = target: T1, Katalase (Homo sapiens, UniProt P04040); test: Enzyme stabilisation by Ectoin against temperature stress in vitro: catalase activity; details: for activation at 1 M: 0.5 h, read-out: Aktivität
T1 sequence (P04040 1-527): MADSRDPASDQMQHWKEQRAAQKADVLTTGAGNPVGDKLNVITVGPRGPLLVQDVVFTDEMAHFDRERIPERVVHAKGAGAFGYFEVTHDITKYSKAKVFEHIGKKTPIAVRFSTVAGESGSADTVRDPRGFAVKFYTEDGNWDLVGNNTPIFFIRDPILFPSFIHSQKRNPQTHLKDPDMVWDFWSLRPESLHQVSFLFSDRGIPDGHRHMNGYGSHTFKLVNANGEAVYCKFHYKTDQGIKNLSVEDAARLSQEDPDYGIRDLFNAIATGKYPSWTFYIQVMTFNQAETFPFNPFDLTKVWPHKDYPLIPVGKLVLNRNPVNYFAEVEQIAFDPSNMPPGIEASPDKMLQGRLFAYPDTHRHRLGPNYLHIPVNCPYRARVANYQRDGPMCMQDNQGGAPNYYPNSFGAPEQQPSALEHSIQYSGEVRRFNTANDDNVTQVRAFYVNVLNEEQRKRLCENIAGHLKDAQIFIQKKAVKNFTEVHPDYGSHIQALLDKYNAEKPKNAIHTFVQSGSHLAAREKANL
Source text: as §1, §2, §3

Aktivität (Elastase; 30 °C): 4,0%
Aktivität (Elastase; 40 °C): 15,0%
Aktivität (Elastase; 50 °C): 25,7%
Aktivität (Superoxiddismutase; 20 °C): 4,9%
Aktivität (Superoxiddismutase; 40 °C): 14,4%
Aktivität (Superoxiddismutase; 50 °C): 17,4%
Aktivität (Glutathionperoxidase; 20 °C): 3,5%
Aktivität (Glutathionperoxidase; 30 °C): 1,4%
Aktivität (Glutathionperoxidase; 40 °C): 20,8%
Aktivität (Glutathionperoxidase; 50 °C): 39,6%
Aktivität von mit Ectoin behandelter Katalase relativ zu nicht mit Ectoin behandelter Katalase (Katalase; 50 °C incubation, ratio of activity with Ectoin to activity without Ectoin): mehr als doppelt so aktiv
Aktivität (Katalase; 50 °C, 30 min incubation, Ectoin 1 mol/l, enzyme 0,05 mg/ml, Tris-HCl pH 6,8, difference to enzyme without Ectoin (set to 100 %)): 117,9%
activation at 1 M (Katalase; pH 6, 20 °C, 30 min incubation, Ectoin 1 mol/l, enzyme 0,05 mg/ml, Tris-HCl pH 6,8, difference to enzyme without Ectoin (set to 100 %)): 2.5%
activation at 1 M (Katalase; pH 6, 30 °C, 30 min incubation, Ectoin 1 mol/l, enzyme 0,05 mg/ml, Tris-HCl pH 6,8, difference to enzyme without Ectoin (set to 100 %)): 10.4%
activation at 1 M (Katalase; pH 6, 40 °C, 30 min incubation, Ectoin 1 mol/l, enzyme 0,05 mg/ml, Tris-HCl pH 6,8, difference to enzyme without Ectoin (set to 100 %)): ~25%
activation at 1 M (Katalase; pH 6, 50 °C, 30 min incubation, Ectoin 1 mol/l, enzyme 0,05 mg/ml, Tris-HCl pH 6,8, difference to enzyme without Ectoin (set to 100 %)): ~120%
Structure (SMILES): CC1=N[C@H](C(=O)O)CCN1 [Ectoin, (S)-1,4,5,6-Tetrahydro-2-methyl-4-pyrimidincarbonsäure]

From patent EP1100453B1, “COSMETIC FORMULATION CONTAINING ECTOINE DERIVATIVES, ENZYMES, VITAMINS AND/OR VITAMIN DERIVATIVES” (MERCK PATENT GmbH, priority 1998, dated 2000)
